According to paper PMC12524408 (International Journal of Molecular Sciences, 2025):
No end group written: not given here.

Legend:
[1] = tested on: DSS-induced colitis; conditions: cited from earlier work; for Therapeutic effect in colitis: 25 nmol/kg subcutaneously, previous studies
Method: Nevertheless, the 25 nmol/kg dose was selected for further evaluation (Figure 5). […] The in vivo pharmacological studies were conducted by a contract research organization (CRO), LSI Medience Ltd. (Kumamoto, Japan), and were not in an academic setting. Although the studies were conducted professionally, a blinded evaluation was not implemented, which may have introduced bias. Additionally, histological analysis of the colonic tissue was not performed. […] Future pharmacologi ...

[2] = Stability (degradation) in human serum; type: in vitro ADME; conditions: pooled human serum, 100 μL in 200 μL (10 mM NaH2PO4 pH 7.1, 100 mM NaCl), 37 °C, 60 min; fluorescence immunoassay; mean, n = 3; read-out: % remaining in human serum after 60 min
Source text: Error bars are shorter than the symbol size.

Compound | Therapeutic effect in colitis [1] | Histological analysis of colonic tissue ([1]; previous study) | remaining at 1 h [2] [%]
60 kDa PEGylated AM ({PEG 60 kDa}-YRQSMNNFQGLRSFGCRFGTCTVQKLAHQIYQFTDKDKDNVAPRSKISPQGY; ends and bridges not checked; UniProt P35318 95-146, looked up) [60 k PEG-AM] | significant therapeutic effects | – | –
20 kDa PEGylated AM ({PEG 20 kDa}-YRQSMNNFQGLRSFGCRFGTCTVQKLAHQIYQFTDKDKDNVAPRSKISPQGY; ends and bridges not checked; UniProt P35318 95-146, looked up) [20 k PEG-AM] | significant therapeutic effects | histological improvements were observed, but were not statistically significant | –
CC[C@H](C)[C@H](NC(=O)[C@H](CCC(N)=O)NC(=O)[C@H](Cc1c[nH]cn1)NC(=O)[C@H](C)NC(=O)[C@H](CC(C)C)NC(=O)[C@H](CCCCN)NC(=O)[C@H](CCC(N)=O)NC(=O)[C@@H](NC(=O)[C@@H](NC(=O)[C@@H]1CSSC[C@H](NC(=O)CNC(=O)[C@H](Cc2ccccc2)NC(=O)[C@H](CO)NC(=O)[C@H](CCCNC(=N)N)NC(=O)[C@H](CC(C)C)NC(=O)CNC(=O)[C@H](CCC(N)=O)NC(=O)[C@H](Cc2ccccc2)NC(=O)[C@H](CC(N)=O)NC(=O)[C@H](CC(N)=O)NC(=O)[C@H](CCSC)NC(=O)[C@H](CO)NC(=O)[C@H](CCC(N)=O)NC(=O)[C@H](CCCNC(=N)N)NC(=O)[C@@H](N)Cc2ccc(O)cc2)C(=O)N[C@@H](CCCNC(=N)N)C(=O)N[C@@H](Cc2ccccc2)C(=O)NCC(=O)N[C@@H]([C@@H](C)O)C(=O)N1)[C@@H](C)O)C(C)C)C(=O)N[C@@H](Cc1ccc(O)cc1)C(=O)N[C@@H](CCC(N)=O)C(=O)N[C@@H](Cc1ccccc1)C(=O)N[C@H](C(=O)N[C@@H](CC(=O)O)C(=O)N[C@@H](CCCCN)C(=O)N[C@@H](CC(=O)O)C(=O)N[C@@H](CCCCN)C(=O)N[C@@H](CC(=O)O)C(=O)N[C@@H](CC(N)=O)C(=O)N[C@H](C(=O)N[C@@H](C)C(=O)N1CCC[C@H]1C(=O)N[C@@H](CCCNC(=N)N)C(=O)N[C@@H](CO)C(=O)N[C@@H](CCCCN)C(=O)N[C@H](C(=O)N[C@@H](CO)C(=O)N1CCC[C@H]1C(=O)N[C@@H](CCC(N)=O)C(=O)NCC(=O)N[C@@H](Cc1ccc(O)cc1)C(N)=O)[C@@H](C)CC)C(C)C)[C@@H](C)O [AM, Adrenomedullin] | – | – | 9.45
